Values quoted from earlier work as cited in patent US4127539A, “Novel hexacosapeptides, intermediates therefore and pharmaceutical compositions and methods employing said hexacosapeptides” (priority 1977, dated 1978).

How the values were obtained:
rat = conditions: injected directly into the brain of the rat
[1] = literature, background section
[2] = test system: partially purified brain opiate receptor sites; conditions: literature, background section

In the case of “H-Tyr-Gly-Gly-Phe-Met-OH [methionine enkephalin]”, the analgesic effect (rat) is listed as “only weak analgesic agent of short duration”, the “activity in bioassays for opiate activity” value [1] is listed as “very active” and the “binding to partially purified brain opiate receptor sites” value [2] is listed as “binds stereo-specifically”.
